Test systems include CAKI-1; NCI-H226; DU-145; MCF7; OVCAR-8; MDA-N; NCI-H23; U-251; Malme-3M; HCC 2998; UACC-62; SK-MEL-28; SW-620; HCT-116; HCT-15; HT-29; SN12C; NCI-H522; SK-OV-3.
Test in all cases: NCI-60 cell line screen, 48 h

Here are results for nine compounds from ChEMBL document CHEMBL1201862, “PubChem BioAssay data set” (2004).

Each structure is given as a SMILES string.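 Growth conditions: 96-well plates. Treatment: test compound, 48 hours, 5 concentrations. Analysis: linear interpolation between bracketing concentrations; unreached endpoints set to highest concentration. GI50 = concentration required for 50% inhibition of growth.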 Active and inactive are the calls of the source. Cut-off read from the data, not from the text of the source: active = GI50 up to about 1.1 µM and inactive = higher. A value given as a limit tells only on which side of the number the result lay.

With `CN1C(=O)C(O)CC1c1ccccc1F` (stereo unspecified), the GI50 with CAKI-1, with NCI-H226, in the test on DU-145, with MCF7, in the test on OVCAR-8 and in the test on MDA-N was > 100 µM (inactive) in each case. Also, the GI50 with NCI-H23, in the test on U-251, in the test on Malme-3M, in the test on HCC 2998, in the test with UACC-62 and in the test with SK-MEL-28 was > 100 µM (inactive) in each case. In addition, the GI50 is > 100 µM (inactive) with SW-620; > 100 µM (inactive) with HCT-116; above 100 µM in the test on HCT-15; > 100 µM (inactive) with HT-29; > 100 µM (inactive) with SN12C; > 100 µM (inactive) in the test on NCI-H522.

For `S=c1[nH]nc(Cn2c3ccc(Br)cc3c3nc4ccccc4nc32)n1C1CCCCC1`, the GI50 in the test with CAKI-1 is 34.2 µM (inactive); in the test on NCI-H226, 20.5 µM (inactive); with DU-145 it was 27.8 µM (inactive); in the test with MCF7, 16.7 µM (inactive); in the test on SK-OV-3, 26.5 µM (inactive); with OVCAR-8, 22.6 µM (inactive). The GI50 was 37.5 µM (inactive) with MDA-N; 13.8 µM (inactive) with NCI-H23; 18.5 µM (inactive) in the test on U-251; 29.7 µM (inactive) in the test with Malme-3M; 16.1 µM (inactive) in the test with HCC 2998; 16.1 µM (inactive) with UACC-62. For the same compound, the GI50 with SK-MEL-28 was 9.44 µM (inactive); with SW-620, 25.3 µM (inactive); in the test on HCT-116, 12.1 µM (inactive); in the test on HCT-15 it was 22 µM; in the test on HT-29, 16.1 µM (inactive); in the test with SN12C, 25 µM (inactive). In addition, in the test with NCI-H522, the GI50 was 21.3 µM (inactive).

For the compound `COc1ccc(-c2nc(-c3cnccn3)n(COCCO)n2)cc1`, the GI50 with DU-145, in the test on MCF7, with SK-OV-3, in the test with OVCAR-8, in the test with MDA-N and in the test on NCI-H23 was > 100 µM (inactive) throughout. Besides, the GI50 with U-251, in the test with HCC 2998, in the test on UACC-62, with SK-MEL-28, with SW-620 and in the test on HCT-116 was > 100 µM (inactive) in each case. Moreover, the GI50 is above 100 µM in the test on HCT-15, > 100 µM (inactive) in the test on HT-29, > 100 µM (inactive) in the test on SN12C and > 100 µM (inactive) with NCI-H522.

For the compound `CC1CN(c2ccc(Cl)cc2)CC(C)(C)OC(=O)O1` (stereo unspecified), the GI50 in the test with CAKI-1, in the test on NCI-H226, in the test with SK-OV-3, with OVCAR-8, in the test on NCI-H23 and in the test with U-251 was > 100 µM (inactive) throughout. In addition, the GI50 in the test with Malme-3M, with HCC 2998, in the test on UACC-62, in the test with SK-MEL-28, with SW-620 and in the test with HCT-116 was > 100 µM (inactive) in each case. For the same compound, the GI50 in the test on HCT-15 was above 100 µM; in the test with HT-29, > 100 µM (inactive); in the test on SN12C, > 100 µM (inactive); in the test with NCI-H522 it was > 100 µM (inactive).

For `C=CCc1cc(OC)c2c(c1)C(O)CC(c1ccccc1)O2` (stereo unspecified), the GI50 with CAKI-1 was 62.7 µM (inactive); in the test with NCI-H226, > 100 µM (inactive); in the test with SK-OV-3, > 100 µM (inactive); with OVCAR-8 it was > 100 µM (inactive); in the test with NCI-H23 it was > 100 µM (inactive); with U-251 it was > 100 µM (inactive). In addition, the GI50 in the test on Malme-3M, with HCC 2998, in the test on UACC-62, in the test with SK-MEL-28, in the test on SW-620 and in the test with HCT-116 was > 100 µM (inactive) each time. In addition, the GI50 in the test with HCT-15 was 96.6 µM; in the test with HT-29 it was 60.1 µM (inactive); in the test with SN12C it was > 100 µM (inactive); in the test on NCI-H522, > 100 µM (inactive).

Take `O=S(=O)(O)c1cc(O)c2c(O)c(/N=N/c3ccc(/C=C/c4ccc(/N=N/c5c(S(=O)(=O)O)cc6cc(S(=O)(=O)O)cc(O)c6c5O)cc4S(=O)(=O)O)c(S(=O)(=O)O)c3)c(S(=O)(=O)O)cc2c1`: the GI50 in the test with CAKI-1, in the test with NCI-H226, in the test with SK-OV-3, in the test on OVCAR-8, in the test on NCI-H23 and with U-251 was > 100 µM (inactive) in each case. In addition, the GI50 with Malme-3M, with HCC 2998, in the test on UACC-62, in the test with SK-MEL-28, in the test on SW-620 and in the test on HCT-116 was > 100 µM (inactive) each time. Further, the GI50 is above 100 µM in the test with HCT-15, > 100 µM (inactive) in the test on HT-29, > 100 µM (inactive) with SN12C and > 100 µM (inactive) with NCI-H522.

For the compound `CC(C)(c1ccccc1)c1ccc(Oc2ccc(C#N)c(C#N)c2)cc1`, the GI50 in the test on CAKI-1 is > 10 µM (inactive); with NCI-H226, > 10 µM (inactive); in the test with SK-OV-3 it was > 10 µM (inactive); in the test with OVCAR-8, > 10 µM (inactive); with NCI-H23, 25 µM (inactive); in the test with U-251 it was 99.8 µM (inactive). Moreover, the GI50 in the test with Malme-3M is > 10 µM (inactive); in the test with HCC 2998 it was > 10 µM (inactive); in the test on UACC-62, > 10 µM (inactive); in the test with SK-MEL-28 it was > 10 µM (inactive); with SW-620 it was > 100 µM (inactive); in the test with HCT-116, 36.6 µM (inactive). Besides, the GI50 in the test with HCT-15 was above 10 µM; in the test on HT-29, > 10 µM (inactive); in the test on SN12C, > 10 µM (inactive); in the test with NCI-H522, 9.06 µM (inactive).

On to `CC1SC2(CCCCC2)N(NC(=O)CSc2nc3ccc(Cl)cc3c(=O)n2-c2ccccc2)C1=O` (stereo unspecified), for which the GI50 with CAKI-1 was 37.1 µM (inactive); in the test on DU-145 it was 27 µM (inactive); with MCF7 it was 15.3 µM (inactive); with SK-OV-3, 33.3 µM (inactive); in the test on OVCAR-8 it was 26.1 µM (inactive); with MDA-N, 18.3 µM (inactive). The GI50 in the test on NCI-H23 was 23.2 µM (inactive); in the test on U-251, 17.5 µM (inactive); in the test with Malme-3M, 30.8 µM (inactive); with HCC 2998, 20 µM (inactive); in the test on UACC-62 it was 18 µM (inactive); in the test with SK-MEL-28, 32.6 µM (inactive). Further, the GI50 was 27.9 µM (inactive) in the test on SW-620; 14 µM (inactive) in the test with HCT-116; 18.7 µM with HCT-15; 16.6 µM (inactive) in the test with HT-29; 17.5 µM (inactive) in the test with SN12C; 18.8 µM (inactive) in the test on NCI-H522.

Regarding `COc1ccc(N2C(=O)C3c4[nH]c5ccccc5c4C4CCCCCCC4C3C2=O)cc1` (stereo unspecified), the GI50 in the test with CAKI-1 was 17 µM (inactive); in the test with NCI-H226, 12.4 µM (inactive); with SK-OV-3, 14.4 µM (inactive); in the test with OVCAR-8, 3.8 µM (inactive); in the test with NCI-H23 it was 13.1 µM (inactive); in the test on U-251, 4.06 µM (inactive). Besides, the GI50 was 16.6 µM (inactive) with Malme-3M; 11.2 µM (inactive) in the test with HCC 2998; 15.9 µM (inactive) in the test with UACC-62; 18.8 µM (inactive) in the test on SK-MEL-28; 7.14 µM (inactive) in the test on SW-620; 3.85 µM (inactive) in the test with HCT-116. Besides, the GI50 in the test with HCT-15 was 6.71 µM; in the test on HT-29, 23 µM (inactive); with SN12C it was 4.79 µM (inactive); with NCI-H522 it was 13.9 µM (inactive).
